Among the data in patent US12172975B2, “1H-indazole carboxamides as receptor-interacting protein kinase 1 inhibitors (RIPK1)” (BRISTOL-MYERS SQUIBB COMPANY, priority 2018, dated 2024) are IC50 values, retold here.

Test [1] concerns MLKL phosphorylation in HT29-L23 human colorectal adenocarcinoma cells. Put plainly: MLKL Phosphorylation High-Content Assay. Format: cell-based. The settings on record: 6 h, necroptosis induced with TNFα, SMAC mimetic and Z-VAD, read-out: pMLKL (IC50). The essentials: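 Following fixation and staining for phospho-S358 MLKL with Hoechst nuclear counterstain, high-content imaging quantified phosphorylation in HT29-L23 cells challenged 6 h with TNFα 35 ng/mL, SMAC mimetic 700 nM and Z-VAD 140 nM. Nec-1s at 6.25 μM defined full inhibition; 4-parameter logistic fits yielded IC50 and Ymax.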

In test [2] the target is T1, His-GST-TVMV-hRIPK1 (1-324) (Homo sapiens (Human), UniProt Q13546). Put plainly: biochemical.
T1 sequence (Q13546 1-324): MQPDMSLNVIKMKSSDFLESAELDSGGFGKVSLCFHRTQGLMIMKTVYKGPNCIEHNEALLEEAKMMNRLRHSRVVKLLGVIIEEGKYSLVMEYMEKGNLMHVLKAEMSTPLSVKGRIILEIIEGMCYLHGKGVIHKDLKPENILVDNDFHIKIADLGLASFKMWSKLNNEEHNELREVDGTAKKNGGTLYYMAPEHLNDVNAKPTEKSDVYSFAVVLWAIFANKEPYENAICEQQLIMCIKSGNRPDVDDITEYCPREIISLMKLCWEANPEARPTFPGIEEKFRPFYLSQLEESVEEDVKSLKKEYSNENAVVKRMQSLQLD
Test [3] concerns the target T1, His-GST-TVMV-hRIPK1 (1-324). Put plainly: RIPK1 HTRF Binding Assay. The settings on record: read-out: RIPK1 HTRF (IC50); FRET probe displacement, 1 h at rt. On the technique in general: Time-resolved FRET reads energy transfer from a long-lived donor to a nearby acceptor.

The term IC50 denotes the concentration needed to halve the response being measured.

Counter-ions that a name gives are not always drawn. Like-named read-outs stand apart in the source and are kept apart here.

As to `[2H]C([2H])([2H])Oc1ncc(-c2ccc3c(C(=O)NC(C)C)n[nH]c3c2)cc1C(=O)NC(C)c1ccccc1OC(F)(F)F` (racemic) [Example 22, (rac)-N-isopropyl-6-(6-methoxyd3-5-((1-(2-(trifluoromethoxy)phenyl)ethyl)carbamoyl)pyridin-3-yl)-1H-indazole-3-carboxamide], the figures for the IC50 in test [1] (Homo sapiens) and in test [2] were 440 nM and 100 nM, respectively.
With `CNC(=O)c1n[nH]c2cc(-c3cnc(OC)c(C(=O)NC(C)c4ccccc4OC(F)(F)F)c3)cc(F)c12` (racemic) [Example 24, 4-fluoro-6-[6-methoxy-5-({1-[2-(trifluoromethoxy)phenyl]ethyl}carbamoyl)pyridin-3-yl]-N-methyl-1H-indazole-3-carboxamide], the IC50 in test [1] (Homo sapiens) was found to be 11 nM; in test [2], 5.4 nM.
In the case of `CCC(c1ccccc1)n1nnc(-c2cc(-c3ccc4c(C(=O)NC)n[nH]c4c3)cnc2OC)n1` (single isomer, unassigned) [Example 18-1, 6-(6-methoxy-5-(2-(l-phenylpropyl)-2H-tetrazol-5-yl)pyridin-3-yl)-N-methyl-1H-indazole-3-carboxamide], the concentration for half-maximal inhibition (IC50) worked out at 7.3 nM in test [1] and 5.5 nM in test [2].
`CCC(c1ccccc1)n1nnc(-c2cc(-c3ccc4c(C(=O)NC)n[nH]c4c3)cnc2OC)n1` (single isomer, unassigned) [Example 18-2, 6-(6-methoxy-5-(2-(l-phenylpropyl)-2H-tetrazol-5-yl)pyridin-3-yl)-N-methyl-1H-indazole-3-carboxamide]: the figures for the IC50 in test [1] and in test [2] were 310 nM and 100 nM, respectively.
For `[2H]C([2H])([2H])NC(=O)c1n[nH]c2cc(-c3cnc(OC)c(-c4nnn(C(C)c5ccc(F)cc5)n4)c3)ccc12` (single isomer, unassigned) [Example 19-1, 6-(5-(2-(1-(4-fluorophenyl)ethyl)-2H-tetrazol-5-yl)-6-methoxypyridin-3-yl)-N-(methyl-d3)-1H-indazole-3-carboxamide] the same measures were 14 nM and 42 nM.
Turning to `[2H]C([2H])([2H])NC(=O)c1n[nH]c2cc(-c3cnc(OC)c(-c4nnn(C(C)c5ccc(F)cc5)n4)c3)ccc12` (single isomer, unassigned) [Example 19-2, 6-(5-(2-(1-(4-fluorophenyl)ethyl)-2H-tetrazol-5-yl)-6-methoxypyridin-3-yl)-N-(methyl-d3)-1H-indazole-3-carboxamide], the figures for the IC50 in test [1] and in test [2] were 64 nM and 100 nM, respectively.
In the same order, the values of `CNC(=O)c1n[nH]c2cc(-c3cnc(OC)c(C(=O)NC4CCCC(c5ccccc5)C4)c3)ccc12` (single isomer, unassigned) [Example 21-1, 6-{6-methoxy-5-[(3-phenylcyclohexyl)carbamoyl]pyridin-3-yl}-N-methyl-1H-indazole-3-carboxamide] are 8.3 nM and 3.5 nM.
For `CNC(=O)c1n[nH]c2cc(-c3cnc(OC)c(C(=O)NC4CCCC(c5ccccc5)C4)c3)ccc12` (single isomer, unassigned) [Example 21-2, 6-{6-methoxy-5-[(3-phenylcyclohexyl)carbamoyl]pyridin-3-yl}-N-methyl-1H-indazole-3-carboxamide] the same measures were 13 nM and 5.9 nM.
Regarding `CNC(=O)c1n[nH]c2cc(-c3cnc(OC)c(C(=O)NC4CCCC(c5ccccc5)C4)c3)ccc12` (single isomer, unassigned) [Example 21-3, 6-{6-methoxy-5-[(3-phenylcyclohexyl)carbamoyl]pyridin-3-yl}-N-methyl-1H-indazole-3-carboxamide], the results for the half-maximal inhibitory concentration (IC50) in test [1] and in test [2] were 8.1 nM and 22 nM, respectively.
As for `CNC(=O)c1n[nH]c2cc(-c3cnc(OC)c(C(=O)NC4CCCC(c5ccccc5)C4)c3)ccc12` (single isomer, unassigned) [Example 21-4, 6-{6-methoxy-5-[(3-phenylcyclohexyl)carbamoyl]pyridin-3-yl}-N-methyl-1H-indazole-3-carboxamide], the IC50 in test [1] and in test [2] was 2 nM each time.
Consider `[2H]C([2H])([2H])N(C1CCC(NC(=O)c2n[nH]c3cc(-c4cnc(OC)c(C(=O)NCc5ccccc5OC(F)(F)F)c4)ccc23)CC1)C([2H])([2H])[2H]` (centres unmarked) [Example 188, N-{4-[di(deutero)methylamino]-cyclohexyl}-6-[6-methoxy-5-({[2-(trifluoromethoxy)phenyl]-methyl}carbamoyl)pyridin-3-yl]-1H-indazole-3-carboxamide], for which the IC50 stood at 130 nM in test [1] (Homo sapiens) and 23 nM in test [2].
Consider `COc1ncc(-c2ccc3c(C(=O)NC4CC4)n[nH]c3c2)cc1C(=O)N[C@H](C)c1cc(OC(F)(F)F)ccc1F` [Example 207, N-cyclopropyl-6-(5-{[(1R)-1-[2-fluoro-5-(trifluoromethoxy)-phenyl](2,2,2-deutero)ethyl]-carbamoyl}-6-(deutero)methoxy-pyridin-3-yl)-1H-indazole-3-carboxamide], for which the 50% inhibitory concentration (IC50) in test [3] is 53 nM; in test [1] it was 110 nM.
Consider `COc1ncc(-c2ccc3c(C(=O)NC4CC4)n[nH]c3c2)cc1C(=O)N[C@@H](C)c1cc(C(F)(F)F)ccc1F` [Example 208, N-cyclopropyl-6-(5-{[(1S)-1-[2-fluoro-5-(trifluoromethyl)phenyl]-(2,2,2-deutero)ethyl]carbamoyl}-6-(deutero)methoxypyridin-3-yl)-1H-indazole-3-carboxamide, TFA], for which the results for the IC50 in test [3] and in test [1] were 27 nM and 18 nM, respectively.
As to `[2H]C([2H])([2H])Oc1ncc(-c2ccc3c(C(=O)NC4CC4)n[nH]c3c2)cc1C(=O)N[C@H](C)c1cccc(C(F)(F)F)c1` [Example 210, N-cyclopropyl-6-[6-(deutero)meth-oxy-5-{[(1R)-1-[3-(trifluorometh-yl)phenyl]ethyl]carbamoyl}pyridin-3-yl]-1H-indazole-3-carboxamide], the half-maximal inhibitory concentration (IC50) in test [3] came to 450 nM; in test [1] (Homo sapiens) it was 88 nM.
Consider `[2H]C([2H])([2H])NC(=O)c1n[nH]c2cc(-c3cnc(OC([2H])([2H])[2H])c(C(=O)NC(C)c4cc(F)ccc4C(F)(F)F)c3)ccc12` (centres unmarked) [Example 212], for which the 50% inhibitory concentration (IC50) in test [3] turned out to be 15 nM; in test [1] (Homo sapiens), 28 nM.
Turning to `[2H]C([2H])([2H])NC(=O)c1n[nH]c2cc(-c3cnc(OC([2H])([2H])[2H])c(C(=O)N[C@@H](C)c4cccc(C(F)(F)F)c4)c3)ccc12` [Example 214, 6-[6-(deutero)methoxy-5-{[(1S)-1-[3-(trifluoromethyl)phenyl]ethyl]carbam-oyl}pyridin-3-yl]-N-(deutero)methyl-1H-indazole-3-carboxamide], the IC50 turned out to be 9.8 nM in test [3] and 36 nM in test [1] (Homo sapiens).
Turning to `[2H]C([2H])([2H])Oc1ncc(-c2ccc3c(C(=O)NC([2H])([2H])C([2H])([2H])[2H])n[nH]c3c2)cc1C(=O)NC(C)c1cc(F)ccc1C(F)(F)F` (centres unmarked) [Example 228, N-[(1,1,2,2,2-deutero)ethyl]-6-[5-({1-[5-fluoro-2-(trifluoromethyl)-phenyl]ethyl}carbamoyl)-6-(deutero)methoxypyridin-3-yl]-1H-indazole-3-carboxamide], the IC50 in test [3] amounted to 58 nM; in test [1] (Homo sapiens), 51 nM.
Turning to `CCNC(=O)c1n[nH]c2cc(-c3cnc(OC)c(C(=O)N[C@H](C)c4cccc(OC(F)(F)F)c4)c3)ccc12` [Example 232, N-[(1,1,2,2,2-deutero)ethyl]-6-[6-(deutero)methoxy-5-{[(1R)-1-[3-(trifluoromethoxy)phenyl](2,2,2-deutero)ethyl]carbamoyl}pyridin-3-yl]-1H-indazole-3-carboxamide], the IC50 in test [3] worked out at 33 nM; in test [1] it was 26 nM.
As to `CCNC(=O)c1n[nH]c2cc(-c3cnc(OC)c(C(=O)N[C@H](C)c4cc(OC(F)(F)F)ccc4F)c3)ccc12` [Example 233, N-[(1,1,2,2,2-deutero)ethyl]-6-(5-{[(1R)-1-[2-fluoro-5-(trifluorometh-oxy)phenyl](2,2,2-deutero)ethyl]-carbamoyl}-6-(deutero)methoxy-pyridin-3-yl)-1H-indazole-3-carbox-amide], the half-inhibitory concentration (IC50) in test [3] worked out at 54 nM; in test [1], 77 nM.
As for `CCNC(=O)c1n[nH]c2cc(-c3cnc(OC)c(C(=O)N[C@H](C)c4cc(C(F)(F)F)ccc4F)c3)ccc12` [Example 234, N-[(1,1,2,2,2-deutero)ethyl]-6-(5-{[(1R)-1-[2-fluoro-5-(trifluorometh-yl)phenyl](2,2,2-deutero)ethyl]-carbamoyl}-6-(deutero)methoxy-pyridin-3-yl)-1H-indazole-3-carbox-amide], the half-inhibitory concentration (IC50) amounted to 8.7 nM in test [3] and 20 nM in test [1].
As to `CCNC(=O)c1n[nH]c2cc(-c3cnc(OC)c(C(=O)N[C@@H](C)c4cc(C(F)(F)F)ccc4F)c3)ccc12` [Example 236, N-[(1,1,2,2,2-deutero)ethyl]-6-(5-{[(1S)-1-[2-fluoro-5-(trifluorometh-yl)phenyl](2,2,2-deutero)ethyl]-carbamoyl}-6-(deutero)methoxy-pyridin-3-yl)-1H-indazole-3-carbox-amide], the figures for the IC50 in test [3] and in test [1] were 37 nM and 40 nM, respectively.
For the compound “N-[(1,1,2,2,2-deutero)ethyl]-6-(5- {[(1R)-1-[2-fluoro-5-(trifluoro- methoxy)phenyl]ethyl]carbamoyl}- 6-(deutero)methoxypyridin-3-yl)- 1H-indazole-3-carboxamide [Example 225]”, the values for the 50% inhibitory concentration (IC50) in test [3] and in test [1] were 43 nM and 91 nM, respectively.
